Tested on: spontaneously hypertensive rats (SHR) on 2.2% salt diet
Assay: Renal interstitial fibrosis after 4-week peptide infusion in SHR on 2.2% salt diet
Assay type: in vivo, rat
Conditions: infusion 5 pmol/kg/min intravenously by osmotic minipump for 4 weeks, versus vehicle control, fibrosis as percent surface area
Text: For kidney fibrosis experiments, two types of rats were used, spontaneously hypertensive rats (SHR) and normotensive control Wistar-Kyoto rats (WKY) (animals were obtained from Australian Animal Resources, Perth, Western Australia, Australia)
i) Male spontaneously hypertensive (SHR) rats on 2.2% salt diet ii) Male Wistar Kyoto (WKY) rats on 4.4% salt diets
Commencing at 12 weeks of age, the rats were acclimatized to tail cuff blood pressure measurements and handling for 2 weeks. They then underwent operative insertion of an osmotic minipump (Alzet—Manufacturer: Durect Corporation, Cupertino, Calif., USA; Supplier: Bioscientific Gymea, NSW, Australia) which was designed to deliver vehicle alone (Hartman's solution, Baxter Health Care Corporation, USA)—(Controls) or VIP, VIP fragment or analogue at a dose of 4 pmol/kg/min or 5 pmol/kg/min intravenously.
The infusion was continued for 4 weeks, during which the rats were weighed and their blood pressures measured twice weekly. At the end of the 4 week infusion period, the rats were anaesthetized and their kidneys harvested. […]
For quantitation of interstitial fibrosis, twenty microscopic fields from each kidney were digitized and the amount of fibrosis in each determined as percent surface area using Image-Pro Plus V5.0 software (Cybernetics). The mean value for each rat and subsequently for each infusion group was then determined.

“His-Ser-Asp-Ala-Val-Phe-Thr-Asp-Asn-Tyr-Thr-Arg-Leu-Arg-Lys-Gln-Met-Ala-Val-Lys-Lys-Tyr-Leu-Asn-Ser-Ile-Leu-Asn (HSDAVFTDNYTRLRKQMAVKKYLNSILN; listed as Homo sapiens) [VIP]” was tested, and the renal interstitial fibrosis was “reductions in renal interstitial fibrosis”.

Reference: patent publication US20140080758A1, “TREATMENT OF KIDNEY DISORDERS WITH VIP FRAGMENTS” (Vectus […] Limited, priority 2008, published 2014)
